Measured values from patent US10428080B2, “TBK/IKK inhibitor compounds and uses thereof” (Merck Patent GmbH, priority 2015, dated 2019).
Counter-ions that a name gives are not always drawn.

Legend:
TBK1 = biological target: T1, TBK1 (Homo sapiens, UniProt Q9UHD2); assay: TBK Biochemical Assay; conditions: read-out: TBK1 IC50
T1 sequence (Q9UHD2 1-729): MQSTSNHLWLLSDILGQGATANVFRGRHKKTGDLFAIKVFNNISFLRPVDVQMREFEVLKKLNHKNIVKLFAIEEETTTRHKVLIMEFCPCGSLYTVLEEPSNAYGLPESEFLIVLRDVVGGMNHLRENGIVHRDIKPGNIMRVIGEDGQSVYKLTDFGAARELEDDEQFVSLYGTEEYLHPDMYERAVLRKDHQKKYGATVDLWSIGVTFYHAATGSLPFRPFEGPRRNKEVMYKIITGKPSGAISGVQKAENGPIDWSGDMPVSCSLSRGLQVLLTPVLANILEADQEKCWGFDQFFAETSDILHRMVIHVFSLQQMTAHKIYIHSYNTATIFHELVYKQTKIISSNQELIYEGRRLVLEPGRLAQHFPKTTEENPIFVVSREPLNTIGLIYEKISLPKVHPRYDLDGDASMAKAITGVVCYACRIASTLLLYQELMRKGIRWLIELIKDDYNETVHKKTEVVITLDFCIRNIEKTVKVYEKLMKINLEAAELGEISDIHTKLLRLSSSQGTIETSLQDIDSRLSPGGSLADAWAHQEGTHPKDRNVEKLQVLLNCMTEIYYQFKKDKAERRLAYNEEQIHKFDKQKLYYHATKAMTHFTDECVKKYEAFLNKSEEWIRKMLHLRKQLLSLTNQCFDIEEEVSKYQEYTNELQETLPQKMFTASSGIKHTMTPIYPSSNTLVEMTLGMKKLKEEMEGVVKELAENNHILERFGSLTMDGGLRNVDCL
Procedure, shortened: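 Caliper LabChip mobility-shift readout of substrate and product after 90 min of TBK1 reaction at 25° C and stop-buffer addition. Compounds tested in 1:4 serial dilution over 10 points from 30 uM final at 1% DMSO; staurosporine 10 uM final defines full inhibition.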

IKKε = biological target: T2, IKKε (Homo sapiens, UniProt Q14164); assay: IKKe Biochemical Assay; conditions: read-out: IKKε IC50
T2 sequence (Q14164 1-716): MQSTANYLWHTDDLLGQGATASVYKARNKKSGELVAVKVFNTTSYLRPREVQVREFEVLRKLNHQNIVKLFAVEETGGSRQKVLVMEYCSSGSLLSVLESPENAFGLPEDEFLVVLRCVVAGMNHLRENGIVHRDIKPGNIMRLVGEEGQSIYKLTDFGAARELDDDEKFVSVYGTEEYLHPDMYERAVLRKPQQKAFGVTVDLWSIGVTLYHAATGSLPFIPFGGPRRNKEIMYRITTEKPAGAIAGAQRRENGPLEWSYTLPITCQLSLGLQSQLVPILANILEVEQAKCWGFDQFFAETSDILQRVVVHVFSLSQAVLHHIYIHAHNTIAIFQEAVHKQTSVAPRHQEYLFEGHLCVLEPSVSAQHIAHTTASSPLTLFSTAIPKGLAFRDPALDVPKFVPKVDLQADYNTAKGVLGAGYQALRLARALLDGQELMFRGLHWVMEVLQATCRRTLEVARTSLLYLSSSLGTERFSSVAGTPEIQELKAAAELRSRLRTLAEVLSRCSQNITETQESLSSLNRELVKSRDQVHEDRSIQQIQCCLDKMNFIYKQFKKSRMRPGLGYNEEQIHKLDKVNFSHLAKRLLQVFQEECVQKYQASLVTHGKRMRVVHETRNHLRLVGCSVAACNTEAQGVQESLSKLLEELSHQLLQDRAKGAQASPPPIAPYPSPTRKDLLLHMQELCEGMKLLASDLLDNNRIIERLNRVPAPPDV
Procedure, shortened: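 Activity was measured as mobility-shift separation of phosphorylated from unphosphorylated substrate on a LabChip EZ Reader. Compound was titrated from 30 uM final in 10 points, 1:4 steps, with 1% DMSO, and enzyme plus substrate reacted 90 min at 25° C before stop buffer. Control wells held 10 uM staurosporine.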

| SMILES | IC50 (TBK1) [nM] | IC50 (IKKε) [nM] |
| --- | --- | --- |
| CNC(=O)c1ccc(-c2cc3nccc(-c4ccc(OC5CCOCC5)c(C#N)c4)c3o2)c(OC)c1 [Compound 100, 4-{7-[3-Cyano-4-(tetrahydro-pyran-4-yloxy)-phenyl]-furo[3,2-b]pyridin-2-yl}-3-methoxy-N-methyl-benzamide] | < 100 | < 100 |
| C[C@@H]1COC[C@@H](C)C1Oc1ccc(-c2ccnc3cc(-c4ccc(C(=O)N(C)C)cc4)oc23)cc1C#N (single isomer, unassigned) [Compound 220, 4-(7-(3-cyano-4-(3,5-dimethyl-tetrahydro-2H-pyran-4-yloxy)phenyl)furo[3,2-b]pyridin-2-yl)-N,N-dimethylbenzamide hydrochloride] | 100 to 1000 | 100 to 1000 |
| COc1cc(C(=O)N(C)C)ccc1-c1cc2nccc(-c3ccc(OCC4CCNC4)c(C#N)c3)c2o1 (centres unmarked) [Compound 152, 4-{7-[3-Cyano-4-(pyrrolidin-3-ylmethoxy)-phenyl]-furo[3,2-b]pyridin-2-yl}-3-methoxy-N,N-dimethyl-benzamide hydrochloride] | < 100 | < 100 |
| CN(C)C(=O)c1ccc(-c2cc3nccc(-c4ccc(N5CC[C@@H](N(C)C)C5)c(C#N)c4)c3o2)cc1 [Compound 172, 4-{7-[3-Cyano-4-((R)-3-dimethylamino-pyrrolidin-1-yl)-phenyl]-furo[3,2-b]pyridin-2-yl}-N,N-dimethyl-benzamide] | 100 to 1000 | 100 to 1000 |
| COc1cc(C(=O)N(C)C2CC2)ccc1-c1cc2nccc(-c3ccc(OC4CCOCC4)c(C#N)c3)c2o1 [Compound 60, 4-{7-[3-Cyano-4-(tetrahydro-pyran-4-yloxy)-phenyl]-furo[3,2-b]pyridin-2-yl}-N-cyclopropyl-3-methoxy-N-methyl-benzamide] | < 100 | < 100 |
| COc1cc(C(=O)N(C)C)ccc1-c1cc2nccc(-c3ccc(OC4CCN(C)CC4(F)F)c(C#N)c3)c2o1 (centres unmarked) [Compound 97, 4-{7-[3-Cyano-4-(3,3-difluoro-1-methyl-piperidin-4-yloxy)-phenyl]-furo[3,2-b]pyridin-2-yl}-3-methoxy-N,N-dimethyl-benzamide] | < 100 | < 100 |
| COc1cc(C(=O)NC2CCOCC2F)ccc1-c1cc2nccc(-c3ccc(NC4CCOCC4)c(C#N)c3)c2o1 (centres unmarked) [Compound 132, 4-{7-[3-Cyano-4-(tetrahydro-pyran-4-ylamino)-phenyl]-furo[3,2-b]pyridin-2-yl}-N-(3-fluoro-tetrahydro-pyran-4-yl)-3-methoxy-benzamide] | < 100 | < 100 |
| COc1cc(C(=O)NC2CCOCC2F)ccc1-c1cc2nccc(-c3ccc(OC4CCOCC4)c(C#N)c3)c2o1 (centres unmarked) [Compound 102, 4-{7-[3-Cyano-4-(tetrahydro-pyran-4-yloxy)-phenyl]-furo[3,2-b]pyridin-2-yl}-N-(3-fluoro-tetrahydro-pyran-4-yl)-3-methoxy-benzamide] | < 100 | < 100 |
| COc1cc(C(=O)N2CC3CCC(O)C3C2)ccc1-c1cc2nccc(-c3ccc(NC4CCOCC4)c(C#N)c3)c2o1 (centres unmarked) [Compound 96] | < 100 | < 100 |
| COc1cc(C(=O)N2CC3CC2CO3)ccc1-c1cc2nccc(-c3ccc(NC4CCOCC4)c(C#N)c3)c2o1 (centres unmarked) [Compound 85, 5-{2-[2-Methoxy-4-(2-oxa-5-aza-bicyclo[2.2.1]heptane-5-carbonyl)-phenyl]-furo[3,2-b]pyridin-7-yl}-2-(tetrahydro-pyran-4-ylamino)-benzonitrile] | < 100 | < 100 |
| COc1cc(C(=O)NC2CCOCC2)ccc1-c1cc2nccc(-c3ccc(OC4CCOCC4)c(C#N)c3)c2o1 [Compound 83, 4-{7-[3-Cyano-4-(tetrahydro-pyran-4-yloxy)-phenyl]-furo[3,2-b]pyridin-2-yl}-3-methoxy-N-(tetrahydro-pyran-4-yl)-benzamide] | < 100 | < 100 |

Next, values leading:

| IC50 (TBK1) [nM] | IC50 (IKKε) [nM] | SMILES |
| --- | --- | --- |
| 100 to 1000 | 100 to 1000 | CN(C)C(=O)c1ccc(-c2cc3nccc(-c4cc(F)c(OC5CCOCC5)c(C#N)c4)c3o2)nc1 [Compound 245, 6-(7-(3-cyano-5-fluoro-4-(tetrahydro-2H-pyran-4-yloxy)phenyl)furo[3,2-b]pyridin-2-yl)-N,N-dimethylnicotinamide hydrochloride] |
| < 100 | < 100 | COc1cc(C(=O)N(C)C)ccc1-c1cc2nccc(-c3ccc(O[C@H]4[C@H](C)COC[C@@H]4C)c(C#N)c3)c2o1 [Compound 232, 4-(7-(3-cyano-4-(3,5-dimethyl-tetrahydro-2H-pyran-4-yloxy)phenyl)furo[3,2-b]pyridin-2-yl)-3-methoxy-N,N-dimethylbenzamide] |
| < 100 | < 100 | CN(C)C(=O)c1ccc(-c2cc3nccc(-c4ccc(OC5CCOCC5)c(C#N)c4)c3o2)nc1 [Compound 243, 6-(7-(3-cyano-4-(tetrahydro-2H-pyran-4-yloxy)phenyl)furo[3,2-b]pyridin-2-yl)-N,N-dimethylnicotinamide] |
| 100 to 1000 | 100 to 1000 | C[C@@H]1COC[C@H](C)[C@@H]1Oc1ccc(-c2ccnc3cc(-c4ccc(C(=O)N(C)C)cc4)oc23)cc1C#N (single isomer, unassigned) [Compound 221, 4-(7-(3-cyano-4-(3,5-dimethyl-tetrahydro-2H-pyran-4-yloxy)phenyl)furo[3,2-b]pyridin-2-yl)-N,N-dimethylbenzamide hydrochloride] |
| 100 to 1000 | 100 to 1000 | CN(C)C(=O)c1ccc(-c2cc3nccc(-c4cc(F)c(NC5CCOCC5)c(C#N)c4)c3o2)nc1 [Compound 246] |
| < 100 | < 100 | COc1cc(C(=O)N(C)C)ccc1-c1cc2nccc(-c3ccc(CN4CCOCC4)c(C#N)c3)c2o1 [Compound 234, 4-(7-(3-cyano-4-(morpholinomethyl)phenyl)furo[3,2-b]pyridin-2-yl)-3-methoxy-N,N-dimethylbenzamide] |
| 100 to 1000 | 100 to 1000 | N#Cc1cc(-c2ccnc3cc(-c4ccc(C(=O)N[C@@H]5CCNC[C@@H]5F)cc4F)oc23)ccc1NC1CCOCC1 (stereo in doubt) [Compound 252, 4-(7-(3-cyano-4-(tetrahydro-2H-pyran-4-ylamino)phenyl)furo[3,2-b]pyridin-2-yl)-3-fluoro-N-(3-fluoropiperidin-4-yl)benzamide hydrochloride] |
| > 5000 | > 5000 | COc1cc(C(=O)N(C)CCO)ccc1-c1cc2ncc(C3CC3)c(-c3ccc(NC4CCOCC4)c(C#N)c3)c2o1 [Compound 305, 4-(7-[3-cyano-4-[(oxan-4-yl)amino]phenyl]-6-cyclopropylfuro[3,2-b]pyridin-2-yl)-N-(2-hydroxyethyl)-3-methoxy-N-methylbenzamide] |
| > 5000 | > 5000 | COc1cc(C(=O)N(C)C)ccc1-c1cc2nccc(Nc3ccc(OC4CCOCC4)c(C#N)c3)c2o1 [Compound 399, 4-(7-[[3-cyano-4-(oxan-4-yloxy)phenyl]amino]furo[3,2-b]pyridin-2-yl)-3-methoxy-N,N-dimethylbenzamide] |
| 100 to 1000 | < 100 | COc1cc(C(=O)NC2CC3CCC2CC3)ccc1-c1cc2nccc(-c3ccc(OC4CCOCC4)c(C#N)c3)c2o1 (centres unmarked) [Compound 495] |
| 1000 to 5000 | 1000 to 5000 | COc1cc(C(=O)N(C)C)cnc1-c1cc2ncc(C)c(-c3ccc(OC4CCOCC4)c(C#N)c3)c2o1 [Compound 320, 6-(7-(3-cyano-4-(tetrahydro-2H-pyran-4-yloxy)phenyl)-6-methylfuro[3,2-b]pyridin-2-yl)-5-methoxy-N,N-dimethylnicotinamide] |
